Measurements reported in patent EP3479863B1, “COMPOSITIONS, METHODS AND ARTICLES CONCERNING PHARMACEUTICAL NITRIC OXIDE AND CONTROLLED PATIENT DELIVERY SYSTEMS THEREOF” (Mallinckrodt Pharmaceuticals Ireland Limited, priority 2010, dated 2012).

Experiments:
[1] = two lines for one acid = two pKa values; cited from earlier work
[2] = NO release from powdered acids hit by single 50 nL sodium nitrite droplets, measured with NO analyzer; conditions: Example 2; for Time to 90% AUC: 7 mg finely ground powder per well, 50 nL droplet of 6M NaNO2, air flow 500 mL/minute; for NO release kinetics: comparison in words, FIG. 12 and FIG. 13
Protocol: Powdered acids of different acidity (TABLE 1) and reducing capacity, or mixtures at equal weight ratios thereof, were tested for their ability to promote NO release from concentrated aqueous solutions of sodium nitrite. Acids were finely ground and about 5-7 mg placed into wells of a reaction plate contained within a reaction chamber equipped with a microvalve capable of dispensing single 50 nL liquid droplets of sodium nitrite into each well. The reaction chamber was continuously flushed with air at defined flow rates and the NO concentration in the air measured with a […]® NO Analyzer 280i. When NO concentrations exceeded the measurement range of the NO analyzer, the air stream was diluted with a nitrogen stream of defined flow rate prior to measurement and the measured NO concentration corrected for the dilution factor. 50 ml of 6M NaNO2 stock solution was prepared and degassed for 15 minutes. 10 mL of the stock solution was filled into a liquid reservoir feeding a microvalve capable of dispensing single 50 nL liquid droplets sequentially into each of six wells of a reaction plate contained within a reaction chamber. The air flow rate through the reaction chamber was set to 500 mL/minute. The air flow was diluted with nitrogen gas to a flow rate of 1586 mL/minute to allow measurement of the entire NO peak with a […]® NO Analyzer 280i. The NO analyzer was calibrated using a 45 ppm NO calibration gas prior to the experiment. […] The microvalve fired a 50 nL droplet into each well. The timecourse of NO production was measured with the NO Analyzer. The following time parameters were analyzed for each NO peak: AUC, time to reaching 90% of the AUC, and maximum peak NO concentration.

[3] = NO release from croconic acid coated MAGNA nylon tape versus particulate croconic acid, single 50 nL droplets; conditions: single 50 nL droplets of 6M NaNO2
Protocol: 10 grams of croconic acid were milled for 5 minutes using a bench top micromill and sifted through a 32 µm sieve. 100 mg of milled acid were suspended into 1 mL of absolute MeOH supplemented with 2% v/v cornstarch and 0.05% v/v glycerol. The yellow-orange suspension was spread evenly as a single coat using an acid resistant brush onto a 5 mm by 18 inch MAGNA® hydrophobic nylon tape of 1 .2 µm pore size. The tape was air-dried for 30 min by suspending it horizontally at both ends. The croconic acid formed a dark yellow slightly powdery coating on top of the nylon membrane; the average surface density of croconic acid deposited on the tape was 2.66 mg/cm^2.
NO release in response to single 50 nL droplets of 6M NaNO2 is shown in FIG 14 and TABLE 3, compared to the NO release from croconic acid powder. The croconic acid coated tape produced 85.3% of the NO compared to the bulk croconic acid powder, based upon the AUC.
Particulate croconic acid of particle size < 20µm produced by dry-milling for 45 min was formulated as 500 mg/ml suspension in USP ethanol by 10 min of sonication with additives of 0.05% v/v glycerol and 2% v/v starch and coated onto MAGNA® hydrophobic nylon tape in two sequential air-dried coats, yielding an average croconic acid surface density of 4.42 mg/cm^2.
NO release in response to single 50 nL droplets of 6M NaNO2 is shown in FIG. 15 and TABLE 4, compared to the NO release from particulate croconic acid. The croconic acid coated tape yielded 93.9% of the NO compared to the bulk croconic acid powder.
In another example, the procedure of the preceding paragraph was repeated by suspending 350 mg of milled croconic acid in 1 mL of isopropanol and preparing two sequential air-dried coats on the MAGNA® hydrophobic nylon strip yielding a croconic acid deposited as a dark yellow coating on the nylon membrane. NO release in response to single 50 nL droplets of 6M NaNO2 is shown in FIG. 16 and TABLE 5, compared to the NO release from particulate croconic acid. The croconic acid coated tape yielded 84.7% of the NO compared to the bulk croconic acid powder.

[4] = cited from earlier work

Compound: O=C(O)C(O)c1c(F)c(F)cc(F)c1F (centres unmarked) [2,3,5,6-Tetrafluoromandelic acid]
- pKa [1]: <<3.4

Compound: O=C(O)C(O)c1ccccc1F (centres unmarked) [2-Fluoro-mandelic acid]
- pKa [1]: <3.4

Compound: O=C1O[C@H]([C@@H](O)CO)C(O)=C1O [Ascorbic Acid, reference compound]
- Time to 90% AUC [2]: 13.98 s
- NO release kinetics [2]: slow, protracted and irregular
- pKa [1]: 11.6

Compound: O=C(O)C(O)c1ccccc1 (centres unmarked) [Mandelic acid]
- pKa [1]: 3.37

Compound: O=C(O)C(Cl)(Cl)Cl [trichlomacetic acid]
- pKa [1]: 0.77

Compound: Croconic Acid
- Time to 90% AUC [2]: 1.1 s
- NO release kinetics [2]: superior NO release kinetics over ascorbic acid while releasing similar quantities of NO
- Time to 90% AUC ([3]; Example 4A, suspension in MeOH, single coat, 1.2 µm pore size tape): 0.79 s
- Time to 90% AUC ([3]; Example 4B, particle size < 20µm, suspension in USP ethanol, two coats): 0.85 s
- Time to 90% AUC ([3]; Example 4C, suspension in isopropanol, two coats): 0.77 s

Compound: nonylphenol ethoxylate [NP-9]
- surface tension ([4]; 0.1 % v/v aqueous solution at 25°C): 30 Dynes/cm
- viscosity ([4]; at 25°C): 243 cp
